Results published in patent publication US10632137B2, “Composition containing ivermectin for exterminating Clavinema mariae infection on Sebastes schlegeli” (REPUBLIC OF KOREA (National Institute of Fisheries Science), priority 2017, dated 2020).
“Also recorded” adds a separate entry of the source.

Legend:
Clavinema mariae [1] = test: organism not typed; conditions: for Viability of Clavinema mariae (Dead %/Survived): after 1 hour; for Killing Concentration (ppm): in vitro, Clavinema mariae in PBS, 1 hour; for Antiparasitic effect of Clavinema mariae in vitro compared with the recommended concentration: in vitro killing concentration versus recommended concentration of Table 3
Source text: Candidate materials of a medicine for exterminating Clavinema mariae infection on Sebastes schlegeli were screened by examining various documents (Table 1). […] From the Sebastes schlegeli naturally infected with Clavinema mariae, the Clavinema mariae was carefully removed with tweezers, preserved in PBS, and directly exposed to nine candidate materials at various concentrations to evaluate the antiparasitic effect. […] However, after being killed, the movement disappears, and thus whether it is dead or not is able to be easily determined by observing whether it moves or not. Among the nine candidate materials, Febendazole, Pyrantel, Levamisole, Piperazine, Ivermectin, Trichlorfon, and Praziqantel were purchased from Sigma Aldrich (USA), and hydrogen peroxide and formalin solution were purchased from Junsei (Japan). Among the candidate materials, a poorly soluble compound, Febendazole, was dissolved in 100% ethanol and diluted with PBS to be used. Piperazine and Ivermectin were dissolved in dimethylsulfoxide (DMSO) and diluted with PBS to be used.
Clavinema mariae was extracted from Sebastes schlegeli (average weight: 150 g) cultivated on the west coast of Cheonsu Bay area (FIG. 1), 2 ml of each candidate material diluted with PBS to have each concentration was dispensed into a 6-well plate. Ten (10) living Clavinema mariae were placed in each well, and viability thereof was confirmed after 1 hour (FIG. 2).

Clavinema mariae [2] = test: In vivo killing (antiparasitic) effect in Sebastes schlegeli naturally infected with Clavinema mariae
Procedure: 500 Sebastes schlegeli (116±17 g, 20±9 cm) on the west coast region of Korea were purchased and were allowed to habituate at a water temperature of 18.5 to 21° C. in a sea water tank for one week. Since the Sebastes schlegeli infected with Clavinema mariae is able to be confirmed by visual inspection, the Sebastes schlegeli was anesthetized with MS-222, and only the Sebastes schlegeli infected with Clavinema mariae was screened by visual inspection and used for clinical examination.

Sebastes schlegeli [3] = test: Mortality (death of fish) of treated Sebastes schlegeli
Source text: For the oral administration, a predetermined amount of each candidate material was mixed with blended powder feed to prepare a feed pellet, the Sebastes schlegeli was anesthetized, and the feed pellet was inserted up to the stomach with tweezers (FIG. 2). […] After 2 weeks, all experimental fishes were anesthetized with MS-222, and Clavinema mariae was extracted with tweezers to confirm the death. The control group was anesthetized, and then only feed pill to which the drug is not added was orally administered thereto.
For this purpose, 10 Sebastes schlegeli infected with Clavinema mariae were divided for each experimental group, and when two weeks passed after the Ivermectin was administered a total of 1 to 4 times daily or every 2 to 4 days while changing an oral administration concentration from 1 to 18 ppm, the antiparasitic effect and the mortality of the Clavinema mariae were observed.

[4] = humans, after oral administration; cited from earlier work
Sebastes schlegeli [5] = test: Histological analysis (H&E) of internal organs after Ivermectin oral administration; type: in vivo; conditions: for hepatocyte (liver histology): oral, 4 times, one week after last administration
Procedure: Ivermectin was orally administered to Sebastes schlegeli according to dosing concentrations, dosing times, and dosing intervals described in Table 6, and after one week from the last oral administration, histological analysis of internal organs was performed. The histological analysis was performed by fixing the liver, kidney, spleen and gill of the experimental fish with 10% neutral formalin, followed by dehydration and paraffin embedding, and the cut tissues were stained with hematoxylin-eosin (H & E) and examined. As a result of histopathological examination, the spleen, kidney, and gill except the liver were normal in all tissues as compared with the control group. […] Therefore, it was confirmed that administration of 1 ppm of Ivermectin 4 times daily or every 2 to 3 days or administration of 2 ppm of Ivermectin every 2 to 3 days was the most preferable administration method in view of stability.

[6] = 1 h, read-out: Viability of Clavinema mariae (Dead %/Survived)
[7] = oral, 5 ppm, 1 administration, after 2 weeks
[8] = at the concentrations shown in Table 4, once, after 2 weeks
[9] = medicated bath, 50 ppm, 10 minutes, 1 bath, after 2 weeks
[10] = medicated bath, 50 ppm, 10 minutes, 1 bath, observed for 2 weeks

## COC(=O)Nc1nc2ccc(Sc3ccccc3)cc2[nH]1 [Fenbendazole]
Clavinema mariae [1]; 1.7 ppm in PBS
  Viability of Clavinema mariae (Dead %/Survived): Survived
Clavinema mariae [1]; 5 ppm in PBS
  Viability of Clavinema mariae (Dead %/Survived): Survived
Clavinema mariae [1]; [6]
  mortality at 15 ppm: 100%
  mortality at 30 ppm: 100%
Clavinema mariae [1]
  Killing Concentration (ppm): 5-15 ppm
Clavinema mariae [2]; [7]
  Killing Effect (%): 0%
Clavinema mariae [2]; oral, 15 ppm, 1 administration, after 2 weeks
  Killing Effect (%): 0%
Sebastes schlegeli [3]; oral, 5 ppm, 1 administration, observed for 2 weeks
  Death of fish (%): 0%
Sebastes schlegeli [3]; oral, 15 ppm, 1 administration, observed for 2 weeks
  Death of fish (%): 0%

## C=O [Formaline, Formalin]
Clavinema mariae [1]; [6]
  mortality at 25 ppm: 100%
  mortality at 50 ppm: 100%
  mortality at 70 ppm: 100%
  mortality at 350 ppm: 100%
Clavinema mariae [1]
  Antiparasitic effect of Clavinema mariae in vitro compared with the recommended concentration: at a lower concentration than the recommended concentration
  Killing Concentration (ppm): 25 ppm
Clavinema mariae [2]; [8]
  Antiparasitic effect against Clavinema mariae on Sebastes schlegeli: could not be confirmed to have the antiparasitic effect
Clavinema mariae [2]; [9]
  Killing Effect (%): 0%
Clavinema mariae [2]; medicated bath, 200 ppm, 10 minutes, 1 bath, after 2 weeks
  Killing Effect (%): 0%
Sebastes schlegeli [3]; [10]
  Death of fish (%): 0%
Sebastes schlegeli [3]; medicated bath, 200 ppm, 10 minutes, 1 bath, observed for 2 weeks
  Death of fish (%): 0%

## OO [Hydrogen peroxide]
Clavinema mariae [1]; [6]
  mortality at 5 ppm: 100%
  mortality at 10 ppm: 100%
  mortality at 14 ppm: 100%
  mortality at 280 ppm: 100%
Clavinema mariae [1]
  Antiparasitic effect of Clavinema mariae in vitro compared with the recommended concentration: at a lower concentration than the recommended concentration
  Killing Concentration (ppm): <5 ppm
Clavinema mariae [2]; [8]
  Antiparasitic effect against Clavinema mariae on Sebastes schlegeli: could not be confirmed to have the antiparasitic effect
Clavinema mariae [2]; medicated bath, 10 ppm, 10 minutes, 1 bath, after 2 weeks
  Killing Effect (%): 0%
Clavinema mariae [2]; [9]
  Killing Effect (%): 0%
Sebastes schlegeli [3]; medicated bath, 10 ppm, 10 minutes, 1 bath, observed for 2 weeks
  Death of fish (%): 0%
Sebastes schlegeli [3]; [10]
  Death of fish (%): 0%

## c1ccc([C@H]2CN3CCSC3=N2)cc1 [Levamisole]
Clavinema mariae [1]; [6]
  mortality at 0.5 ppm: 20%
  mortality at 1 ppm: 100%
  mortality at 1.7 ppm: 100%
Clavinema mariae [1]
  Antiparasitic effect of Clavinema mariae in vitro compared with the recommended concentration: at a lower concentration than the recommended concentration
Clavinema mariae [2]; oral, 2.5 ppm, 1 administration, after 2 weeks
  Killing Effect (%): 0%
Clavinema mariae [2]; [7]
  Killing Effect (%): 0%

## C1CNCCN1 [Piperazine]
Clavinema mariae [1]; [6]
  mortality at 50 ppm: 100%
  mortality at 75 ppm: 100%
  mortality at 100 ppm: 100%
Clavinema mariae [1]
  Antiparasitic effect of Clavinema mariae in vitro compared with the recommended concentration: at a lower concentration than the recommended concentration
  Killing Concentration (ppm): 33-50 ppm
Clavinema mariae [2]; oral, 100 ppm, 1 administration, after 2 weeks
  Killing Effect (%): 0%
Clavinema mariae [2]; oral, 300 ppm, 1 administration, after 2 weeks
  Killing Effect (%): 0%
Sebastes schlegeli [3]; oral, 100 ppm, 1 administration, observed for 2 weeks
  Death of fish (%): 0%
Sebastes schlegeli [3]; oral, 300 ppm, 1 administration, observed for 2 weeks
  Death of fish (%): 30%

## O=C(C1CCCCC1)N1CC(=O)N2CCc3ccccc3C2C1 (stereo not shown) [Praziquantel]
Clavinema mariae [1]; [6]
  mortality at 800 ppm: 100%
  mortality at 1600 ppm: 100%
Clavinema mariae [1]
  Antiparasitic effect of Clavinema mariae in vitro compared with the recommended concentration: did not show the antiparasitic effect of Clavinema mariae at a concentration 2000 times higher than the recommended concentration
  Killing Concentration (ppm): 400-800 ppm

## CN1CCCN=C1/C=C/c1cccs1 [Pyrantel]
Clavinema mariae [1]; [6]
  mortality at 0.06 ppm: 20%
  mortality at 0.09 ppm: 100%
  mortality at 0.9 ppm: 100%
Clavinema mariae [1]
  Antiparasitic effect of Clavinema mariae in vitro compared with the recommended concentration: at a lower concentration than the recommended concentration
  Killing Concentration (ppm): 0.02-0.06 ppm
Clavinema mariae [2]; oral, 2.7 ppm, 1 administration, after 2 weeks
  Killing Effect (%): 0%
Sebastes schlegeli [3]; oral, 2.7 ppm, 1 administration, observed for 2 weeks
  Death of fish (%): 0%

## COP(=O)(OC)C(O)C(Cl)(Cl)Cl (stereo not shown) [Trichlorfon]
Clavinema mariae [1]; 2.5 ppm in PBS
  Viability of Clavinema mariae (Dead %/Survived): Survived
Clavinema mariae [1]; 25 ppm in PBS
  Viability of Clavinema mariae (Dead %/Survived): Survived
Clavinema mariae [1]; [6]
  mortality at 50 ppm: 100%
  mortality at 75 ppm: 100%
Clavinema mariae [1]
  Antiparasitic effect of Clavinema mariae in vitro compared with the recommended concentration: showed the antiparasitic effect at a very high concentration
  Killing Concentration (ppm): 25-50 ppm

## CC[C@H](C)[C@H]1O[C@]2(C=C[C@@H]1C)C[C@@H]1C[C@@H](C/C=C(\C)[C@@H](O[C@H]3C[C@H](OC)[C@@H](O[C@H]4C[C@H](OC)[C@@H](O)[C@H](C)O4)[C@H](C)O3)[C@@H](C)/C=C/C=C3\CO[C@@H]4[C@H](O)C(C)=C[C@@H](C(=O)O1)[C@]34O)O2 [avermectin]
[4]
  Time to maximum plasma concentration: 4 h
  half-life: about 16 hours

## Ivermectin
Clavinema mariae [1]; 0.001 ppm in PBS
  Viability of Clavinema mariae (Dead %/Survived): Survived
Clavinema mariae [1]; 0.01 ppm in PBS
  Viability of Clavinema mariae (Dead %/Survived): Dead (100%)
Clavinema mariae [1]; 0.05 ppm in PBS
  Viability of Clavinema mariae (Dead %/Survived): Dead (100%)
Clavinema mariae [1]; 0.5 ppm in PBS
  Viability of Clavinema mariae (Dead %/Survived): Dead (100%)
Clavinema mariae [1]
  Antiparasitic effect of Clavinema mariae in vitro compared with the recommended concentration: at a lower concentration than the recommended concentration
  Killing Concentration (ppm): 0.001-0.01 ppm
Clavinema mariae [2]; oral, 1 ppm once
  Time until the spot where the pus is formed disappeared and was completely cured: ≤ 6 weeks
Clavinema mariae [2]; oral, 1 ppm once, after two weeks
  Antiparasitic effect against Clavinema mariae on Sebastes schlegeli: some individuals had pus in a spot infected with the Clavinema mariae, and showed the antiparasitic effect
Clavinema mariae [2]; oral, 1 ppm, 1 administration, after 2 weeks
  Killing Effect (%): 20%
Clavinema mariae [2]; oral, 1 ppm, 4 times, everyday, after two weeks
  Killing Effect (%): 100%
Clavinema mariae [2]; oral, 1 ppm, 4 times, intervals 2-3 days, after two weeks
  Killing Effect (%): 100%
Clavinema mariae [2]; oral, 1 to 2 ppm, 4 times
  Nematode antiparasitic effect: 100%
Clavinema mariae [2]; oral, 1 to 2 ppm, 4 times, after 6 weeks
  State of the infection area after 6 weeks: the infection area was cleanly treated
Clavinema mariae [2]; oral, 2 ppm, 4 times, everyday, after two weeks
  Killing Effect (%): 100%
Clavinema mariae [2]; oral, 2 ppm, 4 times, intervals 2-3 days, after two weeks
  Killing Effect (%): 100%
Clavinema mariae [2]; oral, 3 ppm, 2 times, everyday, after two weeks
  Killing Effect (%): 100%
Clavinema mariae [2]; oral, 3 ppm, 2 times, interval 3 days, after two weeks
  Killing Effect (%): 100%
Clavinema mariae [2]; oral, 4 ppm, 2 times, everyday, after two weeks
  Killing Effect (%): 100%
Clavinema mariae [2]; oral, 5 ppm, 2 times, everyday, after two weeks
  Killing Effect (%): 100%
Clavinema mariae [2]; oral, 6 ppm, 2 times, interval 4 days, after two weeks
  Killing Effect (%): 100%
Sebastes schlegeli [5]; all regimens of Table 6, compared with the control group
  Histopathological examination of spleen, kidney and gill: normal
Sebastes schlegeli [5]; 1 ppm, 2-3 days
  hepatocyte (liver histology): Abnormality of the liver tissue was not confirmed; also recorded: Normal
Sebastes schlegeli [5]; 1 ppm, everyday
  hepatocyte (liver histology): Abnormality of the liver tissue was not confirmed; also recorded: Normal
Sebastes schlegeli [5]; 2 ppm, 2-3 days
  hepatocyte (liver histology): Abnormality of the liver tissue was not confirmed; also recorded: Normal
Sebastes schlegeli [5]; 2 ppm, everyday
  hepatocyte (liver histology): hepatocyte metamorphosis, vacuolar formation
Sebastes schlegeli [3]; oral, 1 ppm, 1 administration, observed for 2 weeks
  Death of fish (%): 0%
Sebastes schlegeli [3]; oral, 1 ppm, 4 times, everyday
  Death of fish (%): 0%
Sebastes schlegeli [3]; oral, 1 ppm, 4 times, intervals 2-3 days
  Death of fish (%): 0%
Sebastes schlegeli [3]; oral, 2 ppm, 4 times
  Behaviour and death of Sebastes schlegeli: some Sebastes schlegeli were sitting on the bottom and died
Sebastes schlegeli [3]; oral, 2 ppm, 4 times, everyday
  Death of fish (%): 20%
Sebastes schlegeli [3]; oral, 2 ppm, 4 times, intervals 2-3 days
  Death of fish (%): 0%
Sebastes schlegeli [3]; oral, 3 ppm or more
  Death of Sebastes schlegeli: death occurred after being administered 2 times
Sebastes schlegeli [3]; oral, 3 ppm, 2 times, everyday
  Death of fish (%): 60%
Sebastes schlegeli [3]; oral, 3 ppm, 2 times, interval 3 days
  Death of fish (%): 20%
Sebastes schlegeli [3]; oral, 4 ppm, 2 times, everyday
  Death of fish (%): 60%
Sebastes schlegeli [3]; oral, 5 ppm, 2 times, everyday
  Death of fish (%): 30%
Sebastes schlegeli [3]; oral, 6 ppm, 2 times, interval 4 days
  Death of fish (%): 70%
Sebastes schlegeli [3]; oral, 18 ppm, 1 time
  Death of fish (%): 100%
